Source: US12338237B2, “Derivatives having 1,2,3,4-tetrahydronaphthalene moiety or pharmaceutically acceptable salt thereof and pharmaceutical compositions comprising the same” (YUHAN CORPORATION, priority 2019, dated 2025)
Where two headings read alike, the source gives them in different places.

How the values were obtained:
[1] = target: glucosylceramide synthase (GCS) (Homo sapiens (Human), UniProt Q16739); assay: Evaluation of inhibitory activities against GCS (enzyme reaction with A549 cell lysate, NBD C6-ceramide, HPLC fluorescence); assay type: biochemical; settings: GCS activity in A549 cell lysate, 37° C. for 90 minutes
Sequence of glucosylceramide synthase (GCS) (Q16739 whole entry, looked up): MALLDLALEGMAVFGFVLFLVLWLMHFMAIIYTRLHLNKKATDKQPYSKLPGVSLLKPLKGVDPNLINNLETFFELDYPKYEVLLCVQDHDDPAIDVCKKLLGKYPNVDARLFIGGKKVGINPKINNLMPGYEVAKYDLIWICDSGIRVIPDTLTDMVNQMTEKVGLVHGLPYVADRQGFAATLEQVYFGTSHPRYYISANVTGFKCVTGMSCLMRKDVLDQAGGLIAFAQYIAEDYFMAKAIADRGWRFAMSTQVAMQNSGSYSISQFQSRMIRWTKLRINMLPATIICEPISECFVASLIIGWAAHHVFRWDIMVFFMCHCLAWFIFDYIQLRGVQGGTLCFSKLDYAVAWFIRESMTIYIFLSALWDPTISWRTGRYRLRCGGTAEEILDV
Description: Ibiglustat, known as a GCS inhibitor, was used as a control.
After the cells attached to the culture dish were washed with phosphate buffered saline (PBS), the cells were scraped off with a cell scraper and then centrifuged (4000 rpm, 3 min, 4° C.) to collect the cells in a 50 ml tube. The cell pellets were suspended in a lysis buffer (50 mM HEPES, pH 7.3, containing 1× the protease/phosphatase inhibitor cocktail), lysed by sonication, and then the lysate was centrifuged (13000 rpm, 10 min, 4° C.). The obtained supernatant was used for the quantitative analysis of proteins. The amount of proteins was measured using the BCA protein assay kit, using bovine serum albumin as a standard.
Enzymatic reactions were initiated by sequentially adding the following reaction materials to a 96 deep-well plate. Thereafter, the enzymatic reactions were performed at 37° C. for 90 minutes.
The enzymatic reactions were stopped by adding 100 μl of chloroform/methanol (2:1, v/v). After vortexing for 15 seconds, each mixture was centrifuged (4000 rpm, 10 min, 18° C.). The lower layer (50 μl) was transferred to a new 96 deep-well plate and dried with a reduced concentrator.
Data analysis was performed by the following equations. % Area (Sample)=Area (GlcCer)/[Area (Cer)+Area (GlcCer)]×100 % GCS activity=[Area(Sample)−Area(ibiglustat)]/[Area(DMSO)−Area(ibiglustat)]×100

GM1 production = assay: cells; assay type: cell-based

| Compound | IC50 [1] | IC50 (GM1 production; Homo sapiens, Jurkat, 72 h) | IC50 (GM1 production; read-out: IC50) |
| --- | --- | --- | --- |
| COc1cccc(-c2ccc3c(c2)CCC(C)(C)C3NC(=O)O[C@@H]2CN3CCC2CC3)c1 (stereo partly drawn) [Example 121, (S)-quinuclidin-3-yl (6-(3-methoxyphenyl)-2,2-dimethyl-1,2,3,4-tetrahydronaphthalen-1-yl)carbamate] | 5.51 nM | 0.0387 nM |  |
| CC1(C)CCc2cc(-c3cc(Cl)cc(Cl)c3)ccc2C1NC(=O)O[C@@H]1CN2CCC1CC2 (stereo partly drawn) [Example 107, (S)-quinuclidin-3-yl (6-(3,5-dichlorophenyl)-2,2-dimethyl-1,2,3,4-tetrahydronaphthalen-1-yl)carbamate] | 5.86 nM | 6.5 nM |  |
| O=C(NC1CCCc2cc(-c3cccc(OC(F)(F)F)c3)ccc21)O[C@@H]1CN2CCC1CC2 (stereo partly drawn) [Example 8, (S)-quinuclidin-3-yl (6-(3-(trifluoromethoxy)phenyl)-1,2,3,4-tetrahydronaphthalen-1-yl)carbamate] | 2.1 nM | 12.4 nM |  |
| CC(C)(C)c1ccc(-c2ccc3c(c2)CCCC3NC(=O)O[C@@H]2CN3CCC2CC3)cc1 (stereo partly drawn) [Example 36, (S)-quinuclidin-3-yl (6-(4-(tert-butyl)phenyl)-1,2,3,4-tetrahydronaphthalen-1-yl)carbamate] | 22.4 nM | 339 nM |  |
| CC1(C)CCc2cc(-c3ccc(C(F)(F)F)cc3)ccc2C1NC(=O)O[C@@H]1CN2CCC1CC2 (stereo partly drawn) [Example 88, (S)-quinuclidin-3-yl (2,2-dimethyl-6-(4-(trifluoromethyl)phenyl)-1,2,3,4-tetrahydronaphthalen-1-yl)carbamate] | 3.5 nM | 11.3 nM |  |
| CC1(C)CCc2ccc(-c3ccc(Cl)cc3)cc2C1NC(=O)O[C@@H]1CN2CCC1CC2 (stereo partly drawn) [Example 152, (S)-quinuclidin-3-yl (7-(4-chlorophenyl)-2,2-dimethyl-1,2,3,4-tetrahydronaphthalen-1-yl)carbamate] | 5.72 nM | 25.9 nM |  |
| O=C(NC1CCCc2cc(-c3ccc(C4CC4)cc3)ccc21)O[C@H]1CN2CCC1CC2 (stereo partly drawn) [Example 37, (S)-quinuclidin-3-yl (6-(4-cyclopropyl)-1,2,3,4-tetrahydronaphthalen-1-yl)carbamate] | 5.07 nM |  | 286 nM |
| COCCOc1ccc(-c2ccc3c(c2)C(NC(=O)O[C@@H]2CN4CCC2CC4)CCC3)cc1 (stereo partly drawn) [Example 79, (S)-quinuclidin-3-yl (7-(4-(2-methoxyethoxy)phenyl)-1,2,3,4-tetrahydronaphthalen-1-yl)carbamate] | 12.9 nM | 65.3 nM |  |
| CC1(C)CCc2cc(-c3cc(F)ccc3F)ccc2C1NC(=O)O[C@@H]1CN2CCC1CC2 (stereo partly drawn) [Example 103, (S)-quinuclidin-3-yl (6-(2,5-difluorophenyl)-2,2-dimethyl-1,2,3,4-tetrahydronaphthalen-1-yl)carbamate] | 0.95 nM | 0.997 nM |  |
| COc1cccc(-c2ccc3c(c2)CCC2(CC2)C3NC(=O)O[C@@H]2CN3CCC2CC3)c1 (stereo partly drawn) [Example 216, (S)-quinuclidin-3-yl (6′-(3-methoxyphenyl)-3′,4′-dihydro-1′H-spiro[cyclopropane-1,2′-naphthalen]-1′-yl) carbamate] | 12.2 nM |  | 115 nM |
| CC(C)Oc1ccc(-c2ccc3c(c2)C(NC(=O)O[C@@H]2CN4CCC2CC4)CCC3)cc1 (stereo partly drawn) [Example 83, (S)-quinuclidin-3-yl (7-(4-isopropoxyphenyl)-1,2,3,4-tetrahydronaphthalen-1-yl)carbamate] | 39.1 nM | 386 nM |  |
| CCCc1ccc(-c2ccc3c(c2)CCCC3NC(=O)O[C@@H]2CN3CCC2CC3)cc1 (stereo partly drawn) [Example 32, (S)-quinuclidin-3-yl (6-(4-propylphenyl)-1,2,3,4-tetrahydronaphthalen-1-yl)carbamate] | 8.31 nM | 475 nM |  |
| COc1ccc(-c2ccc3c(c2)CCC2(CC2)C3NC(=O)O[C@@H]2CN3CCC2CC3)cc1 (stereo partly drawn) [Example 215, (S)-quinuclidin-3-yl (6′-(4-methoxyphenyl)-3′,4′-dihydro-1′H-spiro[cyclopropane-1,2′-naphthalen]-1′-yl) carbamate] | 2.35 nM |  | 57.3 nM |
| Cc1cc(-c2ccc3c(c2)CCC(C)(C)C3NC(=O)O[C@@H]2CN3CCC2CC3)ccn1 (stereo partly drawn) [Example 117, (S)-quinuclidin-3-yl (2,2-dimethyl-6-(2-methylpyridin-4-yl)-1,2,3,4-tetrahydronaphthalen-1-yl)carbamate] | 30.3 nM | 37.8 nM |  |
| CC(C)Oc1ccc(-c2ccc3c(c2)CCC(C)(C)C3NC(=O)O[C@@H]2CN3CCC2CC3)cc1F (stereo partly drawn) [Example 142, (S)-quinuclidin-3-yl (6-(3-fluoro-4-isopropoxyphenyl)-2,2-dimethyl-1,2,3,4-tetrahydronaphthalen-1-yl)carbamate] | 1.11 nM | 3.4 nM |  |
| CCOc1ccc(-c2ccc3c(c2)C(NC(=O)O[C@@H]2CN4CCC2CC4)CCC3)cc1 (stereo partly drawn) [Example 81, (S)-quinuclidin-3-yl (7-(4-ethoxyphenyl)-1,2,3,4-tetrahydronaphthalen-1-yl)carbamate] | 63.3 nM | 410 nM |  |
| O=C(NC1CCCc2ccc(-c3ccc(F)c(F)c3)cc21)O[C@@H]1CN2CCC1CC2 (stereo partly drawn) [Example 64, (S)-quinuclidin-3-yl (7-(3,4-difluorophenyl)-1,2,3,4-tetrahydronaphthalen-1-yl)carbamate] | 13 nM | 131 nM |  |
| CC1(C)CCc2cc(-c3ccnc(F)c3)ccc2C1NC(=O)O[C@@H]1CN2CCC1CC2 (stereo partly drawn) [Example 118, (S)-quinuclidin-3-yl (6-(2-fluoropyridin-4-yl)-2,2-dimethyl-1,2,3,4-tetrahydronaphthalen-1-yl)carbamate] | 17 nM | 12.4 nM |  |
| CC1(C)CCc2cc(-c3ccc(OC(F)(F)F)cc3)ccc2C1NC(=O)O[C@@H]1CN2CCC1CC2 (stereo partly drawn) [Example 89, (S)-quinuclidin-3-yl (2,2-dimethyl-6-(4-(trifluoromethoxy)phenyl)-1,2,3,4-tetrahydronaphthalen-1-yl)carbamate] | 2.2 nM | 7.79 nM |  |
| COCOc1ccc(-c2ccc3c(c2)C(NC(=O)O[C@@H]2CN4CCC2CC4)C(C)(C)CC3)cc1 (stereo partly drawn) [Example 168, (S)-quinuclidin-3-yl (7-(4-(methoxymethoxy)phenyl)-2,2-dimethyl-1,2,3,4-tetrahydronaphthalen-1-yl)carbamate] | 17.9 nM | 70.7 nM |  |
| O=C(NC1CCCc2ccc(-c3ccccc3Cl)cc21)O[C@@H]1CN2CCC1CC2 (stereo partly drawn) [Example 62, (S)-quinuclidin-3-yl (7-(2-chlorophenyl)-1,2,3,4-tetrahydronaphthalen-1-yl)carbamate] | 7.37 nM | 49.2 nM |  |
| O=C(NC1CCCc2ccc(-c3cc(F)cc(F)c3)cc21)O[C@@H]1CN2CCC1CC2 (stereo partly drawn) [Example 68, (S)-quinuclidin-3-yl (7-(3,5-difluorophenyl)-1,2,3,4-tetrahydronaphthalen-1-yl)carbamate] | 63.5 nM | 276 nM |  |
| O=C(NC1CCCc2cc(-c3cccc(F)c3F)ccc21)O[C@@H]1CN2CCC1CC2 (stereo partly drawn) [Example 19, (S)-quinuclidin-3-yl (6-(2,3-difluorophenyl)-1,2,3,4-tetrahydronaphthalen-1-yl)carbamate] | 3.44 nM | 67.4 nM |  |
| CC1(C)CCc2cc(-c3cccc(OC(F)(F)F)c3)ccc2C1NC(=O)O[C@@H]1CN2CCC1CC2 (stereo partly drawn) [Example 93, (S)-quinuclidin-3-yl (2,2-dimethyl-6-(3-(trifluoromethoxy)phenyl)-1,2,3,4-tetrahydronaphthalen-1-yl)carbamate] | 1.76 nM | 0.388 nM |  |
| CCOc1ccccc1-c1ccc2c(c1)C(NC(=O)O[C@@H]1CN3CCC1CC3)CCC2 (stereo partly drawn) [Example 76, (S)-quinuclidin-3-yl (7-(2-ethoxyphenyl)-1,2,3,4-tetrahydronaphthalen-1-yl)carbamate] | 18.7 nM | 156 nM |  |
| CC1(C)CCc2ccc(-c3ccccc3OC(F)(F)F)cc2C1NC(=O)O[C@@H]1CN2CCC1CC2 (stereo partly drawn) [Example 162, (S)-quinuclidin-3-yl (2,2-dimethyl-7-(2-(trifluoromethoxy)phenyl)-1,2,3,4-tetrahydronaphthalen-1-yl)carbamate] | 10.6 nM | 57.4 nM |  |
| CCOc1ccc(-c2ccc3c(c2)CCC(C)(C)C3NC(=O)O[C@@H]2CN3CCC2CC3)cc1Cl (stereo partly drawn) [Example 140, (S)-quinuclidin-3-yl (6-(3-chloro-4-ethoxyphenyl)-2,2-dimethyl-1,2,3,4-tetrahydronaphthalen-1-yl)carbamate] | 1.49 nM | 1.4 nM |  |
| COc1cc2c(cc1-c1ccc(OC(C)C)cc1)CCC(C)(C)C2NC(=O)O[C@@H]1CN2CCC1CC2 (stereo partly drawn) [Example 238, (S)-quinuclidin-3-yl (6-(4-isopropoxyphenyl)-7-methoxy-2,2-dimethyl-1,2,3,4-tetrahydronaphthalen-1-yl)carbamate] | 0.55 nM | 3.5 nM |  |
| CC1(C)CCc2ccc(-c3cccc(F)c3)cc2C1NC(=O)O[C@@H]1CN2CCC1CC2 (stereo partly drawn) [Example 155, (S)-quinuclidin-3-yl (7-(3-fluorophenyl)-2,2-dimethyl-1,2,3,4-tetrahydronaphthalen-1-yl)carbamate] | 21 nM | 108 nM |  |
| CC(C)(C)Oc1cc(-c2cc3c(cc2F)C(NC(=O)O[C@@H]2CN4CCC2CC4)C(C)(C)CC3)ccn1 (stereo partly drawn) [Example 231] | 0.86 nM |  | 3.8 nM |
